# Results as given in patent US12421212B2, “Substituted benzenecarboxamides as IL-17A modulators” (DiCE Alpha, Inc., priority 2019, dated 2025).
# Biological target: T1, IL-17A/A (Homo sapiens, UniProt Q16552)
# T1 construct: purchased Genscript Z03228
# T1 sequence (Q16552 24-155): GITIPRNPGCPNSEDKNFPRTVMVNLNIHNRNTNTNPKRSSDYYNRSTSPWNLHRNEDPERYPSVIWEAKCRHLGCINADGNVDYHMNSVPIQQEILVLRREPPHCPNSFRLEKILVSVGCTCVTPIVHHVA
# Test: IL-17A/A HEK-Blue Cell Assay
# Assay type: cell-based
# Conditions: HEK-Blue IL-17A reporter cell line, SEAP readout at A630, 20 hours incubation with IL-17A/A, top concentration 10 uM, 1 uM or 0.3 uM; for IC50: read-out: IL-17A/A inhibition (pIC50) (converted)
# Method: The HEK-Blue IL-17A reporter cell line (Fisher #NC1408637) was used for cell-based IL-17A/A inhibition assays. Cells were grown and prepared for assays according to the manufacturer's instructions. This cell line consists of HEK 293 cells that were designed to expressed IL-17RA, IL-17RC, and the ActI adapter molecule, the combination of which, when stimulated by IL-17A/A activates a NFκB promoter and drives expression of a recombinant Secreted Alkaline Phosphatase (SEAP) geneprotein. Media from the cells is then added to a development reagent (Quanti-Blue Substrate, Fisher #NC9711613), and read at A630.
# Compounds were titrated in DMSO, with a top final compound concentration of 10 uM, 1 uM, or 0.3 uM, and added to the cells immediately before adding IL-17A/A (Genscript #Z03228). The cells, compound, and IL-17A/A were then incubated for 20 hours before media was removed for SEAP analysis. The resulting inhibition curve was then analyzed using Graphpad Prism 7.0, and IC50 values were determined using a 4-parameter nonlinear fit. DMSO was added to a universal final concentration of 0.1% to optimize background.
SMILES,IC50,IL-17A/A inhibition (pIC50)
"CCC(=O)N[C@@H](C(=O)N1CCN(C)CC1)[C@@H](C)c1ccc(NC(=O)C(NC(=O)c2ccnn2CC)C(C)c2ccc(C)cc2)c(F)c1 (single isomer, unassigned) [Compound 294]",10 to 100 nM,
"CCC(=O)NC(C(=O)N1CCN(C(C)C)CC1)[C@@H](C)c1ccc(NC(=O)[C@@H](NC(=O)c2ccnn2CC)[C@H]2CC[C@H](C)CC2)c(F)c1 (single isomer, unassigned) [Compound 368]",10 to 100 nM,
"CCC(=O)N[C@@H](C(=O)N1CCN(C)CC1)[C@@H](C)c1ccc(NC(=O)C(NC(=O)c2ccnn2CC)C(CC)c2ccc(F)cc2)c(F)c1 (single isomer, unassigned) [Compound 553]",,"X2a (compounds were evaluated up to 1 uM and did not inhibit activity by >80%, however they showed some activity at 1 uM (less than 80% and more than 20%))"
"CCC(=O)N[C@@H](C(=O)N1CCN(C)CC1)[C@@H](C)c1ccc(NC(=O)C(NC(=O)c2ccnn2CC)C(CC)c2ccc(F)cc2)c(F)c1 (single isomer, unassigned) [Compound 554]",100 to 10000 nM,
"CCC(=O)N[C@@H](C(=O)N1CCN(C)CC1)[C@@H](C)c1ccc(NC(=O)C(NC(=O)c2ccnn2CC)C(CC)c2ccc(F)cc2)c(F)c1 (single isomer, unassigned) [Compound 555]",< 10 nM,
"CCC(=O)N[C@@H](C(=O)N1CCN(C)CC1)[C@@H](C)c1ccc(NC(=O)C(NC(=O)c2ccnn2CC)C(CC)c2ccc(F)cc2)c(F)c1 (single isomer, unassigned) [Compound 556]",,"X2a (compounds were evaluated up to 1 uM and did not inhibit activity by >80%, however they showed some activity at 1 uM (less than 80% and more than 20%))"
"CCC(=O)N[C@@H](C(=O)N1CCN(C)CC1)[C@@H](C)c1ccc(NC(=O)C(NC(=O)c2nonc2CC)C(CC)c2ccc(F)cc2)c(F)c1 (single isomer, unassigned) [Compound 557]",100 to 10000 nM,
"CCC(=O)N[C@@H](C(=O)N1CCN(C)CC1)[C@@H](C)c1ccc(NC(=O)C(NC(=O)c2nonc2CC)C(CC)c2ccc(F)cc2)c(F)c1 (single isomer, unassigned) [Compound 558]",< 10 nM,
"CCC(=O)N[C@@H](C(=O)N1CCN(C)CC1)[C@@H](C)c1ccc(NC(=O)C(NC(=O)c2nonc2CC)C(CC)c2ccc(F)cc2)c(F)c1 (single isomer, unassigned) [Compound 559]",,X2b (compounds were evaluated up to 1 uM and inhibited activity at 1 uM by less than 20%)
"CCC(=O)N[C@@H](C(=O)N1CCN(C)CC1)[C@@H](C)c1ccc(NC(=O)C(NC(=O)c2ccnn2CC)C(CC)c2ccc(Cl)cc2)c(F)c1 (single isomer, unassigned) [Compound 560]",,X2b (compounds were evaluated up to 1 uM and inhibited activity at 1 uM by less than 20%)
"CCC(=O)N[C@@H](C(=O)N1CCN(C)CC1)[C@@H](C)c1ccc(NC(=O)C(NC(=O)c2ccnn2CC)C(CC)c2ccc(Cl)cc2)c(F)c1 (single isomer, unassigned) [Compound 562]",10 to 100 nM,
"CCC(=O)N[C@@H](C(=O)N1CCN(C)CC1)[C@@H](C)c1ccc(NC(=O)C(NC(=O)c2ccnn2CC)C(CC)c2ccc(Cl)cc2)c(F)c1 (single isomer, unassigned) [Compound 563]",,X2b (compounds were evaluated up to 1 uM and inhibited activity at 1 uM by less than 20%)
"CCC(=O)N[C@@H](C(=O)N1CCN(C)CC1)[C@@H](C)c1ccc(NC(=O)C(NC(=O)c2nonc2CC)C(CC)c2ccc(Cl)cc2)c(F)c1 (single isomer, unassigned) [Compound 564]",,"X2a (compounds were evaluated up to 1 uM and did not inhibit activity by >80%, however they showed some activity at 1 uM (less than 80% and more than 20%))"
"CCC(=O)N[C@@H](C(=O)N1CCN(C)CC1)[C@@H](C)c1ccc(NC(=O)C(NC(=O)c2nonc2CC)C(CC)c2ccc(Cl)cc2)c(F)c1 (single isomer, unassigned) [Compound 565]",< 10 nM,
"CCC(=O)N[C@@H](C(=O)N1CCN(C)CC1)[C@@H](C)c1ccc(NC(=O)C(NC(=O)c2ccnn2CC)C2CCc3cc(F)ccc32)c(F)c1 (single isomer, unassigned) [Compound 568]",< 10 nM,
"CCC(=O)N[C@@H](C(=O)N1CCN(C)CC1)[C@@H](C)c1ccc(NC(=O)C(NC(=O)c2nonc2CC)C2CCc3cc(F)ccc32)c(F)c1 (single isomer, unassigned) [Compound 569]",100 to 10000 nM,

SMILES,IC50,IL-17A/A inhibition (pIC50)
"CCC(=O)N[C@@H](C(=O)N1CCN(C)CC1)[C@@H](C)c1ccc(NC(=O)C(NC(=O)c2nonc2CC)C2CCc3cc(F)ccc32)c(F)c1 (single isomer, unassigned) [Compound 570]",< 10 nM,
"CCC(=O)N[C@@H](C(=O)N1CCN(C)CC1)[C@@H](C)c1ccc(NC(=O)C(NC(=O)c2ccnn2CC)C2CCc3cc(F)ccc32)c(F)c1 (single isomer, unassigned) [Compound 571]",,"X2a (compounds were evaluated up to 1 uM and did not inhibit activity by >80%, however they showed some activity at 1 uM (less than 80% and more than 20%))"
"CCC(=O)N[C@@H](C(=O)N1CCN(C)CC1)[C@@H](C)c1ccc(NC(=O)C(NC(=O)c2nonc2CC)C(C)C2CCC(C)CC2)c(F)c1 (single isomer, unassigned) [Compound 584]",,X2b (compounds were evaluated up to 1 uM and inhibited activity at 1 uM by less than 20%)
"CCC(=O)N[C@@H](C(=O)N1CCN(C)CC1)[C@@H](C)c1ccc(NC(=O)C(NC(=O)c2ccnn2CC)C(C)C2CCC(C)CC2)c(F)c1 (single isomer, unassigned) [Compound 585]",,"X2a (compounds were evaluated up to 1 uM and did not inhibit activity by >80%, however they showed some activity at 1 uM (less than 80% and more than 20%))"
"CCC(=O)N[C@@H](C(=O)N1CCN(C)CC1)[C@@H](C)c1ccc(NC(=O)C(NC(=O)c2nonc2CC)C(C)C2CCC(F)(F)CC2)c(F)c1 (single isomer, unassigned) [Compound 588]",,X3b (compounds were evaluated up to 0.3 uM and inhibited activity at 0.3 uM by less than 20%)
"CCC(=O)N[C@@H](C(=O)N1CCN(C)CC1)[C@@H](C)c1ccc(NC(=O)C(NC(=O)c2ccnn2CC)C(C)C2CCC(F)(F)CC2)c(F)c1 (single isomer, unassigned) [Compound 589]",,X3b (compounds were evaluated up to 0.3 uM and inhibited activity at 0.3 uM by less than 20%)
"CCC(=O)N[C@@H](C(=O)N1CCN(C)CC1)[C@@H](C)c1ccc(NC(=O)C(NC(=O)c2nonc2CC)C(C)C2CCC(F)(F)CC2)c(F)c1 (single isomer, unassigned) [Compound 590]",,X3b (compounds were evaluated up to 0.3 uM and inhibited activity at 0.3 uM by less than 20%)
"CCC(=O)N[C@@H](C(=O)N1CCN(C)CC1)[C@@H](C)c1ccc(NC(=O)C(NC(=O)c2ccnn2CC)C(C)C2CCC(F)(F)CC2)c(F)c1 (single isomer, unassigned) [Compound 591]",,X3b (compounds were evaluated up to 0.3 uM and inhibited activity at 0.3 uM by less than 20%)
"CCn1nccc1C(=O)N[C@H](C(=O)Nc1ccc([C@H](C)C(NC(=O)C(C)F)C(=O)N2CCN(C)[C@@H](C)C2)cc1F)[C@H]1CC[C@H](C)CC1 (single isomer, unassigned) [Compound 592]",10 to 100 nM,
"CCc1nonc1C(=O)N[C@H](C(=O)Nc1ccc([C@H](C)C(NC(=O)C(C)F)C(=O)N2CCN(C)[C@@H](C)C2)cc1F)[C@H]1CC[C@H](C)CC1 (single isomer, unassigned) [Compound 594]",< 10 nM,
"CCc1nonc1C(=O)N[C@H](C(=O)Nc1ccc([C@H](C)C(NC(=O)C(C)F)C(=O)N2CCN(C)[C@@H](C)C2)cc1F)[C@H]1CC[C@H](C)CC1 (single isomer, unassigned) [Compound 595]",10 to 100 nM,
"CCn1nccc1C(=O)N[C@H](C(=O)Nc1ccc([C@H](C)C(NC(=O)C(C)F)C(=O)N2CCN(C)[C@H](C)C2)cc1F)[C@H]1CC[C@H](C)CC1 (single isomer, unassigned) [Compound 596]",10 to 100 nM,
"CCc1nonc1C(=O)N[C@H](C(=O)Nc1ccc([C@H](C)C(NC(=O)C(C)F)C(=O)N2CCN(C)[C@H](C)C2)cc1F)[C@H]1CC[C@H](C)CC1 (single isomer, unassigned) [Compound 598]",10 to 100 nM,
"CCc1nonc1C(=O)N[C@H](C(=O)Nc1ccc([C@H](C)C(NC(=O)C(C)F)C(=O)N2CCN(C)[C@H](C)C2)cc1F)[C@H]1CC[C@H](C)CC1 (single isomer, unassigned) [Compound 599]",< 10 nM,
"CCc1nonc1C(=O)N[C@H](C(=O)Nc1ccc([C@H](C)C(NC(=O)C(F)C2CC2)C(=O)N2CCN(C)[C@H](C)C2)cc1F)[C@H]1CC[C@H](C)CC1 (single isomer, unassigned) [Compound 600]",< 10 nM,
"CCn1nccc1C(=O)N[C@H](C(=O)Nc1ccc([C@H](C)C(NC(=O)C(F)C2CC2)C(=O)N2CCN(C)[C@H](C)C2)cc1F)[C@H]1CC[C@H](C)CC1 (single isomer, unassigned) [Compound 602]",< 10 nM,
